What is called inhibition is the relative decrease from the control value, in per cent.

Results on 12 compounds are retold here after article PMC9705075, “In Vitro characterization of the endocrine disrupting effects of per- and poly-fluoroalkyl substances (PFASs) on the human androgen receptor” (Journal of hazardous materials, 2022).

Series [1] has as its system AR and PSA expression. On the set-up: method as in Kharlyngdoh et al. (2015). The settings on record: at 1 μM; ref Kharlyngdoh et al. (2015); cited from earlier work.
In series [2] the target is T1, human androgen receptor (hAR) (Homo sapiens, UniProt P10275). As to the kind of experiment: Mechanism of AR inhibition: testosterone dose-response curves in presence of test chemical, luciferase reporter, MDA-kb2 cells. The settings on record: highest noncytotoxic concentration: 15 μM NON, HEP, OCT, NNN; 1 μM FLO; 0.05 μM OHF. Format: cell-based.
T1 sequence (P10275 whole entry): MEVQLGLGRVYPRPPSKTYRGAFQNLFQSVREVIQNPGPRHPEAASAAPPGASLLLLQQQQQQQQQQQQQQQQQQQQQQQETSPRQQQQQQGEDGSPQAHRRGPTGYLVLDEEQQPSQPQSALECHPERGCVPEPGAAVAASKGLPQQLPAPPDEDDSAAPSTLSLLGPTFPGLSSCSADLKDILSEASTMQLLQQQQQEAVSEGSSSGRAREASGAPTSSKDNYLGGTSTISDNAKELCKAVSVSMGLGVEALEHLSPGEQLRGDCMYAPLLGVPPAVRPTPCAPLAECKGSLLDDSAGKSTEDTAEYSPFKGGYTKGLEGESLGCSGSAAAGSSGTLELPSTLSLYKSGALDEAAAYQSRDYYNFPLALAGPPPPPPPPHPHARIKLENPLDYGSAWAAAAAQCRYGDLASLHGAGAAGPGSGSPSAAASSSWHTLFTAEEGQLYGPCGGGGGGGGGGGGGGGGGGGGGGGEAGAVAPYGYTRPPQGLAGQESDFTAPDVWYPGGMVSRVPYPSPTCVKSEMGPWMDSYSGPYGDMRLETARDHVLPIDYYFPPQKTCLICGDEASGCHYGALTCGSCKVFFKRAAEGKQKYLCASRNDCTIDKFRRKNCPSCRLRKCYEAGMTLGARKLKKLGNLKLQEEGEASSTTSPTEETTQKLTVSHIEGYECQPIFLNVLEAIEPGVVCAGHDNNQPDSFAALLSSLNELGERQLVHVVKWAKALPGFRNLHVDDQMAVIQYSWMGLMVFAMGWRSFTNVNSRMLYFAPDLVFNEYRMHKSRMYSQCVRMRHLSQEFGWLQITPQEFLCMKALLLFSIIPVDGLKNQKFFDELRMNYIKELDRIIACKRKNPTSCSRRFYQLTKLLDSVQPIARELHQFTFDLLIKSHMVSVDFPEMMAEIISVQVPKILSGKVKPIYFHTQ
Series [3] relates to MDA-kb2 cells. As to the kind of experiment: Cell viability (colorimetric MTT) assay. In kind it is cell-based, human. As for the experimental part: The cytotoxic effect of PFASs was measured by a colorimetric MTT assay as described previously ([Tachachartvanich et al., 2020]). Briefly, MDA-kb2 cells were plated at a density of 3.0 × 10^4 cells/well in clear 96-well plates (Thermo Scientific, Waltham, MA). After 24 h incubation, cells were treated with PFASs at concentrations ranging from 0.1 to 100 μM in triplicate per treatment. The optical density was assessed at 570 nm with reference wavelength of 650 nm using microplate spectrophotometer (Tecan Infinite® 200PRO, Austria). All cytotoxicity experiments were performed side-by-side with the corresponding cell culture assays and repeated at least three times in a separate independent setup.

Series [4] concerns intracellular AR protein in VCaP cells. As to the kind of experiment: Immunoblotting of intracellular AR protein in VCaP cells. To be noted: 10% FBS, 48 h exposure to PFAS. Format: cell-based, human. As for the experimental part: Cells were plated at a density of 2.0 × 10^6 cells/well in 6-well plates (CellStar, Monroe, NC) and incubated 24 h.
Values are expressed as the mean fold change ± S.E.M. from three independent experiments.
Background: A western blot detects proteins with antibodies after separation by electrophoresis.

Series [5] deals with T1, human androgen receptor (hAR). The experiment in a line: AR-mediated luciferase reporter gene assay, antiandrogenic effects (co-culture with […] testosterone), MDA-kb2 cells. To be noted: for IC20: MDA-kb2, 24 h, read-out: Inhibition REC20. Format: cell-based. (In general: Reporter assays use an easily measured gene product as a stand-in for the process of interest.)
In series [6] the test system is PSA, FKBP5 and AR mRNA in VCaP human prostate cancer cells. The experiment in a line: Expression of androgen responsive genes (real-time PCR) in VCaP cells. Format: cell-based. The settings on record: 24 h; for testosterone induced expression of FKBP5 / testosterone induced expression of PSA: 1 and 5 μM PFAS with […] testosterone; for testosterone induced expression of FKBP5 / testosterone induced expression of PSA / expression of AR: 10% CD FBS; for expression of AR: PFAS (1 and 5 μM) or 50 nM OHF with […] testosterone. As for the experimental part: VCaP cells were cultured in phenol red-free DMEM supplemented with 10% charcoal-dextran stripped FBS (10% CD FBS, Hyclone, USA) and 1% L-glutamine (Gibco, Grand Island, NY) for 3 days prior to PFAS treatment. Cells were plated at a density of 2.0 × 10^6 cells/well in 6-well plates (CellStar, Monroe, NC) and incubated 24 h. […] After the incubation, total RNA was extracted using the RNeasy Mini Kit (Qiagen, Germantown, MD). Briefly, 2 μg of total RNA were reverse transcribed to cDNA using the SuperScript IV VILO (Thermo Scientific, Waltham, MA) and subjected to real-time PCR (Stratagene MxP3005, Agilent Technologies, Palo Alto, CA). The cDNA was amplified in 10 μL of SYBR Green real-time PCR Master Mixes (Thermofisher Scientific, Waltham, MA) according to the manufacturer’s protocol. […] The fold change of the target genes was compared to the vehicle control using the 2^−ΔΔCt method ([Livak and Schmittgen, 2001]).
Fig. 4. […] Values are expressed as the mean fold change ± S.E.M. from three independent experiments. […] Significance levels are represented with asterisk as following: *p < 0.05, **p < 0.01, ***p < 0.001, and ****p < 0.0001. The Ptrend is determined based on linear regression analysis.
Background: In qPCR the cycle at which signal appears reflects the starting amount.

For series [7], the system named is AR. Details: method as in Kjeldsen and Bonefeld-Jørgensen, 2013. The settings on record: in vitro study; ref Kjeldsen and Bonefeld-Jørgensen, 2013; cited from earlier work.

Consider `C=CCOc1c(Br)cc(Br)cc1Br` [ATE, allyl 2,4,6-tribromophenyl ether], for which the AR expression result in series [1] is “significantly increased AR expression”.
For `C=C(Br)COc1c(Br)cc(Br)cc1Br` [BATE, 2-bromoallyl 2,4,6-tribromophenyl ether], in series [1], the AR expression result is recorded as “significantly increased AR expression”.
`Oc1ccc(/N=N/c2ccc(-c3ccc(C(F)(F)C(F)(F)C(F)(F)F)cc3)cc2)c(F)c1` [FLO, 3-Fluoro-4-{(E)-[4'-(heptafluoropropyl) [1,1'-biphenyl]-4-yl]diazenyl}phenol]: the “effect on dose response curve of testosterone” value (“effect on dose response curve” below) in series [2] is “did not change the dose response curves”. Also, in series [3], the cytotoxicity entry is given as “relatively high cytotoxicity”.
`FC(F)(F)C(F)(F)C(F)(F)c1nc2ccccc2nc1-c1ccccc1` [HEP, 2-(Heptafluoropropyl)-3-phenylquinoxaline]: in series [4], the “AR protein level, normal conditions” value was “significantly decreased the AR protein”. For the same compound, the IC20 in series [5] is 3.08 µM. For the same compound, in series [6], the “testosterone induced expression of FKBP5” value was “significantly and concentration dependently decreased”; the “testosterone induced expression of PSA” value was “significantly and concentration dependently decreased”. Moreover, in series [2], the “effect on dose response curve” value is “rightward parallel shift”.
In the case of `O=C(Nc1ccc([N+](=O)[O-])cc1)C(F)(F)C(F)(F)C(F)(F)C(F)(F)F` [NNN, 2,2,3,3,4,4,5,5,5-Nonafluoro-N-(4 nitrophenyl)pentanamide], the “AR protein level, normal conditions” value in series [4] is given as “did not significantly affect cellular AR protein levels”. Besides, in series [5], the IC20 came out at 2.78 µM. Also, the inhibition at 10 µM in series [5] (MDA-kb2, read-out: inhibition of AR transactivation) was roughly 25%. Moreover, the “AR expression at 1 μM” value in series [6] (1 μM with […] testosterone) is on record as “did not significantly affect AR expression”. Besides, in series [6], the “testosterone induced expression of FKBP5” value was “significantly and concentration dependently decreased”; the “testosterone induced expression of PSA” value was “significantly and concentration dependently decreased”; the “expression of AR” value is “upregulating the expression of AR”. Moreover, the “effect on dose response curve” value in series [2] is on record as “rightward parallel shift”.
As for `O=c1cc(C(F)(F)C(F)(F)C(F)(F)C(F)(F)F)c2cc3c4c(c2o1)CCCN4CCC3` [NON, 9-(Nonafluorobutyl)-2,3,6,7-tetrahydro-1H,5H,11H-pyrano[2,3-f]pyrido[3,2,1-ij]quinolin-11-one], the “AR protein level, normal conditions” value in series [4] is “significantly decreased the AR protein”. Further, the IC20 in series [5] amounted to 10.5 µM. For the same compound, in series [6], the “testosterone induced expression of FKBP5” value is “significantly and concentration dependently decreased”; the “testosterone induced expression of PSA” value was “significantly and concentration dependently decreased”. Further, the “effect on dose response curve” value in series [2] was “rightward parallel shift”.
`Fc1c(F)c(F)c2c(F)c(F)c(F)c(F)c2c1F` [OCT, Octafluoronaphthalene]: the “effect on dose response curve” value in series [2] was “did not change the dose response curves”.
Take `CC(C)(O)C(=O)Nc1ccc([N+](=O)[O-])c(C(F)(F)F)c1` [OHF, hydroxyflutamide, reference compound]: the “expression of AR” value in series [6] is recorded as “upregulating the expression of AR”. Moreover, the “effect on dose response curve” value in series [2] is on record as “the most parallel shift”.
`O=C(O)C(F)(F)C(F)(F)C(F)(F)C(F)(F)C(F)(F)C(F)(F)C(F)(F)C(F)(F)C(F)(F)F` [PFDA, perfluorodecanoate]: the “RIC20, antiandrogenic effect” value in series [7] is roughly 24 µM.
For `O=S(=O)(O)C(F)(F)C(F)(F)C(F)(F)C(F)(F)C(F)(F)C(F)(F)F` [PFHxS, perfluorohexane sulfonate], the “RIC20, antiandrogenic effect” value in series [7] is roughly 19 µM.
Consider `O=C(O)C(F)(F)C(F)(F)C(F)(F)C(F)(F)C(F)(F)C(F)(F)C(F)(F)C(F)(F)F` [PFNA, perfluorononanoate], for which the “RIC20, antiandrogenic effect” value in series [7] was roughly 44 µM.
In the case of `O=C(O)C(F)(F)C(F)(F)C(F)(F)C(F)(F)C(F)(F)C(F)(F)C(F)(F)F` [PFOA, perfluorooctanoic acid], the “RIC20, antiandrogenic effect” value in series [7] is on record as “around 10 μM”.
